Laboratory results: patent US6479435B1, “Diaryl ethers and processes for their preparation and herbicidal and desiccant compositions containing them” (ISK Americas Incorporated, priority 1997, dated 2002)

Experiments:
Assay type in all cases: in vivo
[1] = system: soybean (Glycine max L., var. Pella 86, SOY); test: Pre-emerge greenhouse test, crop damage rating; set-up: key to SOY crop damage rating: 0 = no damage, 100 = complete death of all plants; details: 14 days after application, rating scale 0-100
Outline: (§1)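 Visual 0–100 injury rating (100 = all plants dead) taken 14 days after treatment. Rates of 125–1000 g ai/ha in acetone, 187 l/ha, were sprayed onto soil one day post-sowing; pots were surface-watered to incorporate, then bottom-watered.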

[2] = system: ivyleaf morningglory (Ipomoea hederacea, IPOHE); test: Pre-emerge greenhouse herbicide test, phytotoxicity rating; details: 14 days after application, rating scale 0-100
Outline: as §1

[3] = system: common ragweed (Ambrosia artemisiifolia L., AMBEL); test: as above; details: 14 days after application, rating scale 0-100
Outline: as §1

[4] = system: green foxtail (Setaria viridis, SETVI); test: as above; details: 14 days after application, rating scale 0-100
Outline: as §1

[5] = system: sicklepod (Cassia obtusifolia, CASOB); test: as above; details: 14 days after application, rating scale 0-100
Outline: as §1

[6] = system: barnyardgrass (Echinochloa crusgalli, ECHCG); test: as above; details: 14 days after application, rating scale 0-100
Outline: as §1

[7] = system: Johnsongrass (Sorghum halepense, SORHA); test: as above; details: 14 days after application, rating scale 0-100
Outline: as §1

[8] = system: lambsquarters (Chenopodium album, CHEAL); test: as above; details: 14 days after application, rating scale 0-100
Outline: as §1

[9] = system: redroot pigweed (Amaranthus retroflexus, AMARE); test: as above; details: 14 days after application, rating scale 0-100
Outline: as §1

[10] = system: large crabgrass (Digitaria sanguinalis, DIGSA); test: as above; details: 14 days after application, rating scale 0-100
Outline: as §1

[11] = system: velvetleaf (Abutilon theophrasti, ABUTH); test: as above; details: 14 days after application, rating scale 0-100
Outline: as §1

[12] = system: upland rice (Oryza sp., var.Tebonnet, RICE); test: Pre-emerge greenhouse test, crop damage rating; details: 14 days after application, rating scale 0-100
Outline: as §1

[13] = system: field corn (Zea mays L., var. Dekalb 535, CORN); test: Pre-emerge greenhouse test, crop damage rating; details: 14 days after application, rating scale 0-100
Outline: as §1

[14] = system: upland rice (Oryza sp., var.Tebonnet, RICE); test: Post-emerge greenhouse test, crop damage rating; details: 14 days after application; for crop damage rating RICE: scale 0-100
Outline: (§2)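 Scores use a 0 (no damage) to 100 (complete kill) scale, taken 14 days after a foliar spray. Acetone solutions with 0.25% v/v non-ionic surfactant were applied by track sprayer at 187 l/ha and 63-1000 g ai/ha to bottom-watered 2-3 leaf plants.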

[15] = system: field corn (Zea mays L., var. Dekalb 535, CORN); test: Post-emerge greenhouse test, crop damage rating; details: 14 days after application; for crop damage rating CORN: scale 0-100
Outline: as §2

[16] = system: soybean (Glycine max L., var. Pella 86, SOY); test: Post-emerge greenhouse test, crop damage rating; set-up: key to crop damage rating SOY: 0-100 scale: 0 = no damage, 100 = complete death of all plants; details: 14 days after application; for crop damage rating SOY: scale 0-100
Outline: as §2

[17] = system: ivyleaf morningglory (Ipomoea hederacea, IPOHE); test: Post-emerge greenhouse herbicide test, phytotoxicity rating; details: 14 days after application; for phytotoxicity rating IPOHE: scale 0-100
Outline: as §2

[18] = system: green foxtail (Setaria viridis, SETVI); test: as above; details: 14 days after application; for phytotoxicity rating SETVI: scale 0-100
Outline: as §2

[19] = system: sicklepod (Cassia obtusifolia, CASOB); test: as above; details: 14 days after application; for phytotoxicity rating CASOB: scale 0-100
Outline: as §2

[20] = system: barnyardgrass (Echinochloa crusgalli, ECHCG); test: as above; details: 14 days after application; for phytotoxicity rating ECHCG: scale 0-100
Outline: as §2

[21] = system: Johnsongrass (Sorghum halepense, SORHA); test: as above; details: 14 days after application; for phytotoxicity rating SORHA: scale 0-100
Outline: as §2

[22] = system: lambsquarters (Chenopodium album, CHEAL); test: as above; details: 14 days after application; for phytotoxicity rating CHEAL: scale 0-100
Outline: as §2

[23] = system: redroot pigweed (Amaranthus retroflexus, AMARE); test: as above; details: 14 days after application; for phytotoxicity rating AMARE: scale 0-100
Outline: as §2

[24] = system: large crabgrass (Digitaria sanguinalis, DIGSA); test: as above; details: 14 days after application; for phytotoxicity rating DIGSA: scale 0-100
Outline: as §2

[25] = system: velvetleaf (Abutilon theophrasti, ABUTH); test: as above; details: 14 days after application; for phytotoxicity rating ABUTH: scale 0-100
Outline: as §2

[26] = system: common ragweed (Ambrosia artemisiifolia L., AMBEL); test: as above; details: 14 days after application; for phytotoxicity rating AMBEL: scale 0-100
Outline: as §2

O=c1n(-c2cc(Oc3nc(F)c(F)cc3F)c(Cl)cc2F)c(=S)n2n1CCCC2 [Compound 8-28]
60: ECHCG phytotoxicity rating ([6]; Rate 125 g al/ha) | phytotoxicity rating SORHA ([21]; rate 500 g ai/ha)
95: ECHCG phytotoxicity rating ([6]; Rate 500 g al/ha) | SORHA phytotoxicity rating ([7]; Rate 500 g al/ha) | phytotoxicity rating IPOHE ([17]; rate 500 g ai/ha)
25: RICE crop damage rating ([12]; Rate 125 g al/ha)
40: IPOHE phytotoxicity rating ([2]; Rate 500 g al/ha) | crop damage rating RICE ([14]; rate 500 g ai/ha) | phytotoxicity rating SORHA ([21]; rate 63 g ai/ha)
100: AMBEL phytotoxicity rating ([3]; Rate 500 g al/ha) | SETVI phytotoxicity rating ([4]; Rate 125 g al/ha) | SETVI phytotoxicity rating ([4]; Rate 500 g al/ha) | CASOB phytotoxicity rating ([5]; Rate 125 g al/ha) | CHEAL phytotoxicity rating ([8]; Rate 125 g al/ha) | CHEAL phytotoxicity rating ([8]; Rate 500 g al/ha) | AMARE phytotoxicity rating ([9]; Rate 125 g al/ha) | AMARE phytotoxicity rating ([9]; Rate 500 g al/ha) | DIGSA phytotoxicity rating ([10]; Rate 125 g al/ha) | DIGSA phytotoxicity rating ([10]; Rate 500 g al/ha) | ABUTH phytotoxicity rating ([11]; Rate 125 g al/ha) | ABUTH phytotoxicity rating ([11]; Rate 500 g al/ha) | phytotoxicity rating CASOB ([19]; rate 500 g ai/ha) | phytotoxicity rating CHEAL ([22]; rate 500 g ai/ha) | phytotoxicity rating AMARE ([23]; rate 63 g ai/ha) | phytotoxicity rating AMARE ([23]; rate 500 g ai/ha) | phytotoxicity rating ABUTH ([25]; rate 63 g ai/ha) | phytotoxicity rating ABUTH ([25]; rate 500 g ai/ha)
80: AMBEL phytotoxicity rating ([3]; Rate 125 g al/ha) | phytotoxicity rating ECHCG ([20]; rate 500 g ai/ha)
50: crop damage rating SOY ([16]; rate 63 g ai/ha) | phytotoxicity rating CASOB ([19]; rate 63 g ai/ha) | phytotoxicity rating AMBEL ([26]; rate 63 g ai/ha)
70: RICE crop damage rating ([12]; Rate 500 g al/ha)
20: crop damage rating CORN ([15]; rate 500 g ai/ha) | phytotoxicity rating DIGSA ([24]; rate 63 g ai/ha)
30: IPOHE phytotoxicity rating ([2]; Rate 125 g al/ha) | phytotoxicity rating SETVI ([18]; rate 63 g ai/ha) | phytotoxicity rating DIGSA ([24]; rate 500 g ai/ha)
15: CORN crop damage rating ([13]; Rate 125 g al/ha) | CORN crop damage rating ([13]; Rate 500 g al/ha)
10: SOY crop damage rating ([1]; Rate 125 g al/ha) | SOY crop damage rating ([1]; Rate 500 g al/ha) | crop damage rating RICE ([14]; rate 63 g ai/ha) | crop damage rating CORN ([15]; rate 63 g ai/ha) | phytotoxicity rating ECHCG ([20]; rate 63 g ai/ha)
90: CASOB phytotoxicity rating ([5]; Rate 500 g al/ha) | SORHA phytotoxicity rating ([7]; Rate 125 g al/ha) | crop damage rating SOY ([16]; rate 500 g ai/ha) | phytotoxicity rating IPOHE ([17]; rate 63 g ai/ha) | phytotoxicity rating SETVI ([18]; rate 500 g ai/ha) | phytotoxicity rating CHEAL ([22]; rate 63 g ai/ha) | phytotoxicity rating AMBEL ([26]; rate 500 g ai/ha)

Cn1nc(-c2cc(Oc3ncccn3)c(Cl)cc2F)c(Cl)c1C(F)(F)F [Compound 1-7]
80: RICE crop damage rating (0-100) ([14]; 500 g al/ha)
40: phytotoxicity rating IPOHE ([2]; 125 g ai/ha) | crop damage rating CORN ([13]; 125 g ai/ha)
0: crop damage rating SOY ([1]; 125 g ai/ha) | crop damage rating SOY ([1]; 500 g ai/ha)
70: phytotoxicity rating IPOHE ([2]; 500 g ai/ha) | crop damage rating RICE ([12]; 125 g ai/ha) | crop damage rating CORN ([13]; 500 g ai/ha) | CORN crop damage rating (0-100) ([15]; 500 g al/ha)
99: phytotoxicity rating ABUTH ([11]; 500 g ai/ha)
95: phytotoxicity rating CASOB ([5]; 125 g ai/ha) | AMBEL phytotoxicity rating (0-100) ([26]; 63 g al/ha)
100: phytotoxicity rating AMBEL ([3]; 125 g ai/ha) | phytotoxicity rating AMBEL ([3]; 500 g ai/ha) | phytotoxicity rating SETVI ([4]; 125 g ai/ha) | phytotoxicity rating SETVI ([4]; 500 g ai/ha) | phytotoxicity rating ECHCG ([6]; 125 g ai/ha) | phytotoxicity rating ECHCG ([6]; 500 g ai/ha) | phytotoxicity rating SORHA ([7]; 125 g ai/ha) | phytotoxicity rating SORHA ([7]; 500 g ai/ha) | phytotoxicity rating CHEAL ([8]; 125 g ai/ha) | phytotoxicity rating CHEAL ([8]; 500 g ai/ha) | phytotoxicity rating AMARE ([9]; 125 g ai/ha) | phytotoxicity rating AMARE ([9]; 500 g ai/ha) | phytotoxicity rating DIGSA ([10]; 125 g ai/ha) | phytotoxicity rating DIGSA ([10]; 500 g ai/ha) | RICE crop damage rating (0-100) ([14]; 63 g al/ha) | SOY crop damage rating (0-100) ([16]; 63 g al/ha) | SOY crop damage rating (0-100) ([16]; 500 g al/ha) | IPOHE phytotoxicity rating (0-100) ([17]; 63 g al/ha) | IPOHE phytotoxicity rating (0-100) ([17]; 500 g al/ha) | SETVI phytotoxicity rating (0-100) ([18]; 63 g al/ha) | SETVI phytotoxicity rating (0-100) ([18]; 500 g al/ha) | CASOB phytotoxicity rating (0-100) ([19]; 500 g al/ha) | ECHCG phytotoxicity rating (0-100) ([20]; 63 g al/ha) | ECHCG phytotoxicity rating (0-100) ([20]; 500 g al/ha) | SORHA phytotoxicity rating (0-100) ([21]; 500 g al/ha) | CHEAL phytotoxicity rating (0-100) ([22]; 63 g al/ha) | CHEAL phytotoxicity rating (0-100) ([22]; 500 g al/ha) | AMARE phytotoxicity rating (0-100) ([23]; 63 g al/ha) | AMARE phytotoxicity rating (0-100) ([23]; 500 g al/ha) | DIGSA phytotoxicity rating (0-100) ([24]; 500 g al/ha) | ABUTH phytotoxicity rating (0-100) ([25]; 63 g al/ha) | ABUTH phytotoxicity rating (0-100) ([25]; 500 g al/ha) | AMBEL phytotoxicity rating (0-100) ([26]; 500 g al/ha)
90: phytotoxicity rating CASOB ([5]; 500 g ai/ha) | phytotoxicity rating ABUTH ([11]; 125 g ai/ha) | crop damage rating RICE ([12]; 500 g ai/ha) | CORN crop damage rating (0-100) ([15]; 63 g al/ha) | SORHA phytotoxicity rating (0-100) ([21]; 63 g al/ha) | DIGSA phytotoxicity rating (0-100) ([24]; 63 g al/ha)
